Measurements reported in patent US9943528B2 (MAPREG, priority 2016, dated 2018).
Like-named read-outs stand apart in the source and are kept apart here.

Key:
[1] = target: T1, human progesterone receptor (PR) (Homo sapiens, UniProt P06401); assay: Test of progesterone receptor antagonist activity (MMTV-luciferase transactivation with progesterone 1 nM); type: cell-based; details: HEK293T cells, progesterone 1 nM plus increasing amounts; FIG. 2
T1 construct: expressed in transfected cells; host or cells: HEK293T
T1 sequence (P06401 1-933): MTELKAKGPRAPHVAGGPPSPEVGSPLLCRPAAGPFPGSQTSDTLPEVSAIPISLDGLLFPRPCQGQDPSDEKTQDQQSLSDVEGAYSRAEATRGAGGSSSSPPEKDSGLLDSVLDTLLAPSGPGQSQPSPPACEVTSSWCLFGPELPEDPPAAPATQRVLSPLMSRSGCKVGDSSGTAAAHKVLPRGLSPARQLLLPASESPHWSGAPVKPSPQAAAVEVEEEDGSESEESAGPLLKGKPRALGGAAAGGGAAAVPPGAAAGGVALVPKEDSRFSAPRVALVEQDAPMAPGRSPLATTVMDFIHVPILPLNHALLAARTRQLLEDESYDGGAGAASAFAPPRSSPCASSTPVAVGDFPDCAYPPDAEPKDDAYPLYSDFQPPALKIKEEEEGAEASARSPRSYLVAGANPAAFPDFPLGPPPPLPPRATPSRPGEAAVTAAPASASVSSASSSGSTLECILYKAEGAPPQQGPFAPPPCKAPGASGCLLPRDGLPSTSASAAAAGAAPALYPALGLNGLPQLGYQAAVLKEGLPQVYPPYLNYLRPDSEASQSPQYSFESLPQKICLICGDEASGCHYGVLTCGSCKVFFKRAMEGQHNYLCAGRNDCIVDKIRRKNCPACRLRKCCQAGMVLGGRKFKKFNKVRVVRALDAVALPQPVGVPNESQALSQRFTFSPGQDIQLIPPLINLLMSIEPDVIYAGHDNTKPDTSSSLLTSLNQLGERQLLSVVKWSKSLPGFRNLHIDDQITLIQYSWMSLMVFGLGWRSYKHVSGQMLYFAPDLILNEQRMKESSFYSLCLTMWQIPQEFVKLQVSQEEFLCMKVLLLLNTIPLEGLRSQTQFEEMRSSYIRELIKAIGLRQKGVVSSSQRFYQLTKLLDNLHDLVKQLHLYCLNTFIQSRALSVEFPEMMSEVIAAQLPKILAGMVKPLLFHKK
Protocol: (§1) The main experimental setting used is the following: HEK293T cells were transiently transfected, using calcium phosphate precipitation technology, with expression vectors pSG5hPR (which permits expression of human progesterone receptor (PR)), pFC31-luc (contains the luciferase gene under the control of the MMTV promoter, which is in turn activated by binding of a progestin to progesterone receptor) and pcbetagal (which permits expression of betagalactosidase), and cultured during 24 hours with increasing amounts of various compositions:
Test of progesterone receptor […] activity: transfected cells were cultured with progesterone (1 nM) and increasing amounts of RU486 (a well-known progesterone receptor antagonist) or 3-methoxy-pregnenolone.
With this setting, a compound with progesterone receptor antagonist activity competes with progesterone for the occupation of progesterone receptor and results in a progressive loss of transactivation activity when the amount of this compound is increased compared to progesterone.

NMDA PCP site = assay: CNS receptor binding assay, NMDA PCP site; details: MAP4343 10 μM; [3H] TCP; rat cerebral cortex
Text: (§2) MAP4343 has been screened for in vitro affinity to 80 different CNS neurotransmitters receptors using various validated binding assays.

Wistar Kyoto (WKY) rats = assay: Elevated-plus maze (EPM) in WKY rats, acute treatment; type: in vivo, rat; details: MAP4343 10 mg/kg s.c., fluoxetine 10 mg/kg, ketamine 30 mg/kg i.p., FIG. 5D
Protocol: After a 6-day period of acclimatization, all experimental groups received daily successive subcutaneous (250 μl per rat) and intraperitoneal (1 ml/kg) injections. WI rats received injection of vehicle (sesame oil+saline) while WKY rats were randomly assigned to […] experimental groups, as follow: KWY rats receiving only vehicle (sesame oil+saline) and WKY rats treated with MAP4343 (10 mg/kg, s.c.; rats received in parallel i.p. injections of saline), fluoxetine (10 mg/kg i.p., rats received in parallel s.c. injections of sesame oil) or ketamine (30 mg/kg, i.p.; rats received in parallel s.c. injections of sesame oil) (see FIG. 3).
After, a 6-day period of acclimatization, the acute phase of treatment started for 4 days during behavioral tests were performed (FIG. 3). All animals were injected 1 h 30 before the starting of behavioral test.
We used the elevated-plus maze (EPM) as an assay of anxiety-related behavior in rodents (Walf and Frye, 2007). […] The time spent in the open versus closed arms was blindly measured by two independent experimenters from the recorded video, and the open arm-index was calculated as follow: time in the open arms (sec)/[time in open arms (sec)+time in closed arms (sec)].

PC12 cells = details: cited from earlier work
[2] = system: social-isolated adult male Sprague Dawley rats; details: cited from earlier work
MAP2 = assay: Binding (affinity) by displacement of PREG-3H
[3] = target: T1, human progesterone receptor (PR); assay: Test of progesterone receptor agonist activity (MMTV-luciferase transactivation in transfected HEK293T cells); type: cell-based; details: 24 hours, increasing amounts, FIG. 1
Protocol: as §1
Test of Progesterone Receptor Agonist Activity: Transfected Cells were Cultured with Increasing Amounts of Progesterone or 3-Methoxy-Pregnenolone

[4] = system: adult male Sprague Dawley rats; details: U.S. Pat. No. 8,334,278, cited from earlier work
GABA (non-selective) = assay: CNS receptor binding assay, GABA; details: MAP4343 10 μM; [3H] GABA; rat cerebral cortex
Text: as §2

[5] = system: adult male Sprague Dawley rats; details: cited from earlier work

For `CO[C@H]1CC[C@@]2(C)C(=CC[C@H]3[C@@H]4CC[C@H](C(C)=O)[C@@]4(C)CC[C@@H]32)C1` [MAP4343, 3β-methoxy-pregna-5-ene-20-one], the “progesterone receptor antagonist activity (loss of transactivation)” value [1] was “weak progesterone receptor antagonist”, the “% Inhibition of control specific binding” value (NMDA PCP site) was −10% and the “open-arm (OA) index in EPM, change vs WKY receiving vehicle alone” value (Wistar Kyoto (WKY) rats) was 165%. For the same molecule, the neurite extension (PC12 cells) was “enhance neurite extension”, the “anxiety in the EPM test” value ([2]; acute phase (2 days of daily injections)) was “not in the acute phase” and the “anxiety in the EPM test” value ([2]; subchronic phase (8 days of daily injections)) was “recovered increased anxiety”. For the same molecule, the Affinity (MAP2) was 100% of PREG, the “progesterone receptor agonist activity (transactivation, expression of luciferase)” value [3] was “does not have progesterone receptor agonist activity” and the “memory retention in NOR” value ([4]; naïve adult male Sprague Dawley rats) was “increases memory retention”. The “memory deficit in the NOR test” value ([4]; social-isolated adult male Sprague Dawley rats) was “induces recovery of memory deficit”, the “% Inhibition of control specific binding” value (GABA (non-selective)) was 2% and the “immobility in the forced swimming test” value ([5]; naïve adult male Sprague Dawley rats, U.S. Pat. No. 8,334,278) was “decreases immobility”. The “immobility in the forced swimming test” value ([5]; social-isolated adult male Sprague Dawley rats, Bianchi and Baulieu, 2012) was “decreased immobility”.
